Test results as given in ChEMBL document CHEMBL2046439, “Spectaflavoside A, a new potent iron chelating dimeric flavonol glycoside from the rhizomes of Zingiber spectabile Griff” (Bioorg Med Chem Lett, 2012).
Counter-ions that a name gives are not always drawn.

Key:
[1] = Fe2+ chelating activity of the compound incubated for 5 mins prior to ferrozine-addition measured after 10 mins by spectrophotometry; type: functional; set-up: concentration or dose not given beside the values
HT-29 = assay: Antiproliferative activity against human HT-29 cells after 48 hrs by MTS assay; type: functional, cell-based; details: HT-29, 48 h
MCF7 = assay: Antiproliferative activity against human MCF7 cells after 48 hrs by MTS assay; type: functional, cell-based; details: MCF7, 48 h
HepG2 = assay: Antiproliferative activity against human HepG2 cells after 48 hrs by MTS assay; type: functional, cell-based; details: HepG2, 48 h
DU-145 = assay: Antiproliferative activity against human DU145 cells after 48 hrs by MTS assay; type: functional, cell-based; details: DU-145, 48 h
A549 = assay: Antiproliferative activity against human A549 cells after 48 hrs by MTS assay; type: functional, cell-based; details: A549, 48 h
MDA-MB-231 = assay: Antiproliferative activity against human MDA-MB-231 cells after 48 hrs by MTS assay; type: functional, cell-based; details: MDA-MB-231, 48 h
BXPC-3 = assay: Antiproliferative activity against human BxPC3 cells after 48 hrs by MTS assay; type: functional, cell-based; details: BXPC-3, 48 h
SK-MEL-5 = assay: Antiproliferative activity against human SK-MEL-5 cells after 48 hrs by MTS assay; type: functional, cell-based; details: SK-MEL-5, 48 h

Row | IC50 (HT-29) | IC50 (MCF7) | IC50 (HepG2) | IC50 (DU-145) | IC50 (A549) | IC50 (MDA-MB-231) | IC50 (BXPC-3) | IC50 (SK-MEL-5) | Structure (SMILES) | Activity [1]
1 |  |  |  |  |  |  |  |  | O=c1c(O)c(-c2ccc(O)cc2)oc2cc(O)cc(O)c12 | 12.1%
2 |  |  |  |  |  |  |  |  | CC(=O)O[C@@H]1[C@@H](OC(C)=O)[C@@H](O)[C@H](Oc2c(-c3ccc(O)cc3)oc3cc(O)cc(O)c3c2=O)O[C@H]1C | 55.4%
3 | 19.4 µM | 75.3 µM | 80 µM | 48.1 µM | 74.1 µM | 87.5 µM | 24.1 µM | 61.4 µM | COc1cc(/C=C/C(O)=C/C(=O)/C=C/c2ccc(O)cc2)ccc1O [DEMETHOXYCURCUMIN] | 50.9%
4 |  |  |  |  |  |  |  |  | CC(=O)O[C@@H]1[C@@H](O)[C@@H](O)[C@H](Oc2c(-c3ccc(O)cc3)oc3cc(O)c(-c4c(O)cc(O)c5c(=O)c(O[C@@H]6O[C@@H](C)[C@H](OC(C)=O)[C@@H](O)[C@H]6O)c(-c6ccc(O)cc6)oc45)c(O)c3c2=O)O[C@H]1C | 87.4%
5 | > 150 µM | > 150 µM | > 150 µM | > 150 µM | > 150 µM | > 150 µM | 113 µM | > 150 µM | CC(=O)O[C@@H]1[C@@H](O)[C@@H](OC(C)=O)[C@H](Oc2c(-c3ccc(O)cc3)oc3cc(O)cc(O)c3c2=O)O[C@H]1C | 49.1%
6 | 15.9 µM | 65.2 µM | 59.4 µM | 38.2 µM | 62.6 µM | 64.7 µM | 11.4 µM | 50.4 µM | COc1cc(/C=C/C(=O)CC(=O)/C=C/c2ccc(O)c(OC)c2)ccc1O [CURCUMIN] | 37.9%
7 | 11.2 µM | 24.1 µM | 0.16 µM | 4.25 µM | 2.36 µM | 31.5 µM | 1.13 µM | 1.74 µM | CC[C@]1(O)C[C@@H]2CN(CCc3c([nH]c4ccccc34)[C@@](C(=O)OC)(c3cc4c(cc3OC)N(C)[C@H]3[C@@](O)(C(=O)OC)[C@H](OC(C)=O)[C@]5(CC)C=CCN6CC[C@]43[C@@H]65)C2)C1 [VINBLASTINE SULFATE] | 
8 |  |  |  |  |  |  |  |  | CC(=O)O[C@@H]1[C@@H](O)[C@H](C)O[C@@H](Oc2c(-c3ccc(O)cc3)oc3cc(O)cc(O)c3c2=O)[C@@H]1OC(C)=O | 52.2%
9 | > 150 µM | > 150 µM | > 150 µM | > 150 µM | > 150 µM | > 150 µM | > 150 µM | > 150 µM | CC(=O)O[C@@H]1[C@@H](O)[C@@H](O)[C@H](Oc2c(-c3ccc(O)cc3)oc3cc(O)cc(O)c3c2=O)O[C@H]1C | 29.1%
